The values that follow come from patent US9409870B2, “Compounds” (CHIESI FARMACEUTICI S.p.A., priority 2014, dated 2016).

What is called IC50 is the concentration that gives 50% inhibition.

In the assay the target is T1, human neutrophil elastase (HNE) (Homo sapiens, UniProt P08246).
T1 construct: purchased Sigma E8140
T1 sequence (P08246 30-247 limits assumed): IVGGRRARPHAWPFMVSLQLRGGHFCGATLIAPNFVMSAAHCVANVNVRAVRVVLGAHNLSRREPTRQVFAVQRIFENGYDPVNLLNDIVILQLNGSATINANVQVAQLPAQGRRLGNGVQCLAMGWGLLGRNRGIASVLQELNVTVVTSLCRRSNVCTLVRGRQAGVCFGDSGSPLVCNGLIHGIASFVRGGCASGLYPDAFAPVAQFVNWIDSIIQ
Briefly: HNE enzyme activity assay (fluorogenic peptide substrate MeOSuc-Ala-Ala-Pro-Val-AMC). The format is biochemical. To be noted: human leukocyte elastase 0.00072 U/mL, substrate 100 μM, 25° C., 30 minutes, pH 7.5; at least two separate experiments; read-out: FINE inhibition (HNE enzyme inhibition, IC50 values). As to the method: Compounds of this invention were tested for potency in a human neutrophil elastase (HNE) enzyme activity assay.
Assays were performed in 96-well plates in a total assay volume of 100 μL. The final concentration of elastase enzyme (human leukocyte elastase, Sigma E8140) was 0.00072 U/mL. The peptide substrate (MeOSuc-Ala-Ala-Pro-Val-AMC, Calbiochem #324740) was used at a final concentration of 100 μM. The final concentration of DMSO was 1% in the assay buffer (0.05M Tris.HCl, 0.1M NaCl, 0.1M CaCl2, 0.0005% brij-35, pH 7.5). The enzymatic reaction was started by addition of the enzyme and incubated at 25° C. for 30 minutes. After incubation, the reaction was stopped by addition of soybean trypsin inhibitor (Sigma T9003) at a final concentration of 50 μg/well. Fluorescence was measured using a Molecular Devices fluorescence plate reader using 380 nm excitation and 460 nm emission wavelengths.
A dose response to each compound was performed and the effect of compound in each experiment was expressed as a percentage inhibition of the control enzyme fluorescence. Dose response curves were plotted and compound potency (IC50) was determined. Compounds were tested in at least two separate experiments.

The structures appear in SMILES notation. Where a name gives a salt, the structure may show the parent alone.

Take `Cc1c(-c2ccnn2-c2ccc(C#N)cc2)n(CCCN(C)C)c(=O)n1-c1cccc(C(F)(F)F)c1` [Example 30, 4-{5-[3-(3-Dimethylamino-propyl)-5-methyl-2-oxo-1-(3-trifluoromethylphenyl)-2,3-dihydro-1H-imidazol-4-yl]-pyrazol-1-yl}-benzonitrile]: the IC50 lay in the range of 1 to 10 nM.

Turning to `CCCS(=O)(=O)n1c(-c2ccnn2-c2ccc(C#N)cc2)c(C)n(-c2cccc(C(F)(F)F)c2)c1=O` [Example 31, 4-{5-[5-Methyl-2-oxo-3-(propane-1-sulfonyl)-1-(3-trifluoromethyl-phenyl)-2,3-dihydro-1H-imidazol-4-yl]-pyrazol-1-yl}-benzonitrile], the IC50 is 1 to 10 nM.

In the case of `Cc1c(-c2ccnn2-c2ccc(C#N)cc2)n(S(=O)(=O)C2CC2)c(=O)n1-c1cccc(C(F)(F)F)c1` [Example 32, 4-{5-[3-Cyclopropanesulfonyl-5-methyl-2-oxo-1-(3-trifluoromethyl-phenyl)-2,3-dihydro-1H-imidazol-4-yl]-pyrazol-1-yl}-benzonitrile], the IC50 was less than 1 nM.

For `CCNS(=O)(=O)n1c(-c2ccnn2-c2ccc(C#N)cc2)c(C)n(-c2cccc(C(F)(F)F)c2)c1=O` [Example 33, 5-[2-(4-Cyano-phenyl)-2H-pyrazol-3-yl]-4-methyl-2-oxo-3-(3-trifluoromethylphenyl)-2,3-dihydro-imidazole-1-sulfonic acid ethylamide], the IC50 was 1 to 10 nM.

`Cc1c(-c2ccnn2-c2ccc(C#N)cc2)n(S(=O)(=O)NC2CCCC2)c(=O)n1-c1cccc(C(F)(F)F)c1` [Example 34, 5-[2-(4-Cyano-phenyl)-2H-pyrazol-3-yl]-4-methyl-2-oxo-3-(3-trifluoromethylphenyl)-2,3-dihydro-imidazole-1-sulfonic acid cyclopentylamide]: the IC50 is less than 1 nM.

Turning to `Cc1c(-c2ccnn2-c2ccc(C#N)cc2)n(S(=O)(=O)NC2CC2)c(=O)n1-c1cccc(C(F)(F)F)c1` [Example 35, 5-[2-(4-Cyano-phenyl)-2H-pyrazol-3-yl]-4-methyl-2-oxo-3-(3-trifluoromethylphenyl)-2,3-dihydro-imidazole-1-sulfonic acid cyclopropylamide], the IC50 was in the range of 1 to 10 nM.

On to `Cc1c(-c2ccnn2-c2ccc(C#N)cc2)n(CC(=O)N2CCCC2)c(=O)n1-c1cccc(C(F)(F)F)c1` [Example 36, 4-{5-[5-Methyl-2-oxo-3-(2-oxo-2-pyrrolidin-1-yl-ethyl)-1-(3-trifluoromethylphenyl)-2,3-dihydro-1H-imidazol-4-yl]-pyrazol-1-yl}-benzonitrile], for which the IC50 lay in the range of 1 to 10 nM.

As to `Cc1c(-c2ccnn2-c2ccc(C#N)cc2)n(CC(=O)N(C)C)c(=O)n1-c1cccc(C(F)(F)F)c1` [Example 37, 2-[5-[2-(4-Cyano-phenyl)-2H-pyrazol-3-yl]-4-methyl-2-oxo-3-(3-trifluoromethyl-phenyl)-2,3-dihydro-imidazol-1-yl]-N,N-dimethyl-acetamide], the IC50 lay in the range of 1 to 10 nM.

Consider `Cc1c(-c2ccnn2-c2ccc(C#N)cc2)n(CC(=O)N2CCN(C)CC2)c(=O)n1-c1cccc(C(F)(F)F)c1` [Example 38, 4-{5-[5-Methyl-3-[2-(4-methyl-piperazin-1-yl)-2-oxo-ethyl]-2-oxo-1-(3-trifluoromethyl-phenyl)-2,3-dihydro-1H-imidazol-4-yl]-pyrazol-1-yl}-benzonitrile], for which the half-maximal inhibitory concentration (IC50) lay within 1 to 10 nM.

On to `Cc1c(-c2ccnn2-c2ccc(C#N)cc2)n(CC(=O)NCCCN(C)C)c(=O)n1-c1cccc(C(F)(F)F)c1` [Example 39, 2-[5-[2-(4-Cyano-phenyl)-2H-pyrazol-3-yl]-4-methyl-2-oxo-3-(3-trifluoromethyl-phenyl)-2,3-dihydro-imidazol-1-yl]-N-(3-dimethylaminopropyl)-acetamide formic acid salt], for which the IC50 lay in the range of 10 to 50 nM.

Consider `Cc1c(-c2ccnn2-c2ccc(C#N)cc2)n(CC(=O)N(C)C2CCC2)c(=O)n1-c1cccc(C(F)(F)F)c1` [Example 40, 2-[5-[2-(4-Cyano-phenyl)-2H-pyrazol-3-yl]-4-methyl-2-oxo-3-(3-trifluoromethyl-phenyl)-2,3-dihydro-imidazol-1-yl]-N-cyclobutyl-N-methyl-acetamide], for which the IC50 was in the range of 1 to 10 nM.

With `Cc1c(-c2ccnn2-c2ccc(C#N)cc2)n(C(=O)NC2CCC2)c(=O)n1-c1cccc(C(F)(F)F)c1` [Example 41, 5-[2-(4-Cyano-phenyl)-2H-pyrazol-3-yl]-4-methyl-2-oxo-3-(3-trifluoromethyl-phenyl)-2,3-dihydro-imidazole-1-carboxylic acid cyclobutylamide], the IC50 is less than 1 nM.

As for `Cc1c(-c2ccnn2-c2ccc(C#N)cc2)n(C(=O)NC2CC2)c(=O)n1-c1cccc(C(F)(F)F)c1` [Example 42, 5-[2-(4-Cyano-phenyl)-2H-pyrazol-3-yl]-4-methyl-2-oxo-3-(3-trifluoromethyl-phenyl)-2,3-dihydro-imidazole-1-carboxylic acid cyclopropylamide], the IC50 was less than 1 nM.

With `CCS(=O)(=O)N1CCC(NC(=O)n2c(-c3ccnn3-c3ccc(C#N)cc3)c(C)n(-c3cccc(C(F)(F)F)c3)c2=O)CC1` [Example 43, 5-[2-(4-Cyano-phenyl)-2H-pyrazol-3-yl]-4-methyl-2-oxo-3-(3-trifluoromethyl-phenyl)-2,3-dihydro-imidazole-1-carboxylic acid (1-ethanesulfonyl-piperidin-4-yl)-amide], the IC50 is less than 1 nM.

Consider `Cc1c(-c2ccnn2-c2ccc(C#N)cc2)n(C(=O)NC2CCOCC2)c(=O)n1-c1cccc(C(F)(F)F)c1` [Example 44, 5-[2-(4-Cyano-phenyl)-2H-pyrazol-3-yl]-4-methyl-2-oxo-3-(3-trifluoromethyl-phenyl)-2,3-dihydro-imidazole-1-carboxylic acid (tetrahydro-pyran-4-yl)-amide], for which the 50% inhibitory concentration (IC50) was less than 1 nM.

Take `Cc1c(-c2ccnn2-c2ccc(C#N)cc2)n(C(=O)NC2CCCC2)c(=O)n1-c1cccc(C(F)(F)F)c1` [Example 45, 5-[2-(4-Cyano-phenyl)-2H-pyrazol-3-yl]-4-methyl-2-oxo-3-(3-trifluoromethyl-phenyl)-2,3-dihydro-imidazole-1-carboxylic acid cyclopentylamide]: the IC50 is less than 1 nM.

For the compound `Cc1c(-c2ccnn2-c2ccc(C#N)cc2)n(C(=O)N[C@@H]2CCN(C)C2)c(=O)n1-c1cccc(C(F)(F)F)c1` [Example 46, 5-[2-(4-Cyano-phenyl)-2H-pyrazol-3-yl]-4-methyl-2-oxo-3-(3-trifluoromethyl-phenyl)-2,3-dihydro-imidazole-1-carboxylic acid ((R)-1-methyl-pyrrolidin-3-yl)-amide], the IC50 was less than 1 nM.

Consider `Cc1c(-c2ccnn2-c2ccc(C#N)cc2)n(C(=O)N[C@H]2CCN(C)C2)c(=O)n1-c1cccc(C(F)(F)F)c1` [Example 47, 5-[2-(4-Cyano-phenyl)-2H-pyrazol-3-yl]-4-methyl-2-oxo-3-(3-trifluoromethyl-phenyl)-2,3-dihydro-imidazole-1-carboxylic acid ((S)-1-methyl-pyrrolidin-3-yl)-amide], for which the IC50 was less than 1 nM.

For `Cc1c(-c2ccnn2-c2ccc(C#N)cc2)n(C(=O)NCc2ccccn2)c(=O)n1-c1cccc(C(F)(F)F)c1` [Example 49, 5-[2-(4-Cyano-phenyl)-2H-pyrazol-3-yl]-4-methyl-2-oxo-3-(3-trifluoromethyl-phenyl)-2,3-dihydro-imidazole-1-carboxylic acid (pyridin-2-ylmethyl)-amide], the IC50 fell in the range of 1 to 10 nM.

On to `Cc1c(-c2ccnn2-c2ccc(C#N)cc2)n(C(=O)NCc2cccnc2)c(=O)n1-c1cccc(C(F)(F)F)c1` [Example 50, 5-[2-(4-Cyano-phenyl)-2H-pyrazol-3-yl]-4-methyl-2-oxo-3-(3-trifluoromethyl-phenyl)-2,3-dihydro-imidazole-1-carboxylic acid (pyridin-3-ylmethyl)-amide], for which the IC50 is 1 to 10 nM.

Regarding `Cc1c(-c2ccnn2-c2ccc(C#N)cc2)n(C(=O)NCc2ccncc2)c(=O)n1-c1cccc(C(F)(F)F)c1` [Example 51, 5-[2-(4-Cyano-phenyl)-2H-pyrazol-3-yl]-4-methyl-2-oxo-3-(3-trifluoromethyl-phenyl)-2,3-dihydro-imidazole-1-carboxylic acid (pyridin-4-ylmethyl)-amide], the IC50 is less than 1 nM.

As to `Cc1c(-c2ccnn2-c2ccc(C#N)cc2)n(C(=O)NCc2cnccn2)c(=O)n1-c1cccc(C(F)(F)F)c1` [Example 52, 5-[2-(4-Cyano-phenyl)-2H-pyrazol-3-yl]-4-methyl-2-oxo-3-(3-trifluoromethyl-phenyl)-2,3-dihydro-imidazole-1-carboxylic acid (pyrazin-2-ylmethyl)-amide], the IC50 fell in the range of 1 to 10 nM.

Take `Cc1c(-c2ccnn2-c2ccc(C#N)cc2)n(C(=O)N[C@@H]2CCC[C@H]2O)c(=O)n1-c1cccc(C(F)(F)F)c1` [Example 53, 5-[2-(4-Cyano-phenyl)-2H-pyrazol-3-yl]-4-methyl-2-oxo-3-(3-trifluoromethyl-phenyl)-2,3-dihydro-imidazole-1-carboxylic acid ((1R,2R)-2-hydroxy-cyclopentyl)-amide]: the IC50 is less than 1 nM.
